{"source": "patent US20050037975A1", "about": "“Method for treatment of glutamate related disorders” (priority 1997, published 2005)", "key": {"[1]": {"test_system": "NMDA-induced seizures", "test": "NMDA-induced seizures in mice", "assay_type": "in vivo", "method": "(§1) Animals—Male Swiss Webster mice (20-30 g) or male Sprague-Dawley rats (250-300 g) were used. All that employed animals were conducted in strict compliance with the NIH guidelines on animal use and institutional regulations concerning animal experimentation. Animals were exposed to hyperbaric oxygen in a specify designed press chamber as previously described (M. D. Faiman et al., Biochem. Pharmacol., 20, 3049-3067 (1971); M. D. Faiman et al. Aerosp. Med.,45, 29032.(1974)). The time to first clonic-tonic seizure after brining animals to a final pressure of five atmospheres of 100% oxygen or after intraperitoneal injection of convulsants was noted by. criteria outlined previously (M. D. Faiman et al. (1971), supra M. D. Faiman et al. (1974), supra). Unless otherwise specified, the ability of DETC-MeSO to prevent seizures was tested by intraperitoneal injection of 5.2 mg/kg of DETC-MeSO 1-2 hours prior to bringing the animal to a final pressure of 5 atmospheres of 100% oxygen or intraperitoneal injection of N-methyl-D-asparate (NMA) (125 mg/kg) r L-methionine sulfoximine (MetSOX) (250 mg/kg). Evaluation of the statistics for whole animal experiments or for changes in brain glutamate binding after administration of DETC-MeSO was conducted by use of the program GraphPAD InStat from Graph PAD Software (San Diego, Calif.)."}, "[2]": {"test_system": "MetSOX-induced seizures", "test": "MetSOX-induced seizures in rats", "assay_type": "in vivo", "method": "as §1"}, "[3]": {"test_system": "ALDH2", "test": "In vitro inactivation of aldehyde dehydrogenase", "assay_type": "biochemical", "method": "To test whether the protective effect of DETC-MeSO in hyperbaric O2-induced convulsions in mice could be due to inhibition of succinic semi-aldehyde dehydrogenase (SSA DH), mechanistically related to ALDH2, the sensitivity of SSA DH to inactivation by DETC-MeSO was determined. Potentially, inhibition of SSA DH in brain could offset the build up of ammonia known to occur and produce more GABA. In vitro both ALDH2 and SSA DH are inactivated by DETC-MeSO at 47 M-1 s-1 and 300 M-1 s-1, respectively."}, "[4]": {"test": "Plasma acetaldehyde determination after ethanol challenge", "assay_type": "in vivo, rat", "conditions": "10.3 mg/kg IP in polyethylene glycol 200, ethanol challenge 1 g/kg IP", "method": "Rats maintained as described in Ex. 4, fasted for 18 hours, were given 10.3 mg/kg of the DETC-Me SO intraperitoneally, dissolved in polyethylene glycol 200 and then challenged eight hours later with a dose of ethanol (1 g/kg; 20% v/v) also administered intraperitoneally. The rats were anesthetized with phenobarbital 30 minutes after alcohol administration and blood was taken by aortic puncture, being drawn into a heparinized syringe. Plasma acetaldehyde was determined by the method of C. O. P. Eriksson et al., Anal. Biochem., 80, 116 (1977). Plasma concentrations were determined based on a standard curve obtained with known concentrations of acetaldehyde. Control rats were treated with 1 ml/kg of polyethylene glycol 200."}, "[5]": {"test_system": "MetSOX-induced seizures", "test": "MetSOX-induced seizures in mice", "assay_type": "in vivo", "method": "as §1"}, "[6]": {"test_system": "brain glutamate receptors (synaptic membranes)", "test": "Glutamate binding to synaptic membranes isolated from treated mice", "assay_type": "in vivo, mouse", "method": "Binding Studies—Synaptic membranes (100 μg protein) were isolated (Y. H. Lee et al., J. Neurosci. Res. 40, 797-806 (1995)) form whole brain homogenate of male Swiss Webster mice and were incubated in 0.1 mM L-glutamate for 30 minutes at 25° C. After addition of 50 nM of [^3H]glutamate, incubation was continued for an additional 45 minutes. Reactions were terminated by centrifugation at 4° C. to separate membrane-bound from free radioactivity. Nonspecific binding (radioactivity bound in the presence of 0.5 mM unlabeled glutamate) averages: 20-30% of total radioactivity bound. The rate (k) and maximum percent blockage of glutamate binding (M) by DETC-MeSO (1) during the incubation time (t) was determined by fitting the equation [% inhibition]=M(1−e^−kh) to these day by use of the program Grafit (Erithicus Software Ltd.). This equation was derived for first-order inactivation by a group specific reagent that gives a partial effect. If “A” is the percent of binding activity that remains after extensive exposure (t=of the receptor to excess DETC-MeSO, then M=100−A)e^−kh+A; substituting (100−M) for “A” and [100−% inhibition] for “a” in this equation gives the one employed for purposes of data analyses. […] A second equation was employed in the analysis of binding data that defines partial, irreversible inactivation of two distinct groups of receptors [% inhibition]=M1(1−e^−k1^IT)+M2(1−e^−k1^IT), where M1 and M2 are the maximum amount of inhibition obtained for complete modification of each receptor population and k1 and k2 are the rate constants for these modifications, respectively.\nSynaptic membranes were prepared from the brains of mice injected with DETC-MeSO (5.2 mg/kg, i.p.). The ability of synaptic membrane preparations isolated from DETC-MeSO-treated mice to bind glutamate was compared with similar preparations isolated from control animals. FIG. 3(A) illustrates the results obtained from synaptic membranes prepared from brains of mice killed two hours after a single dose of DETC-MeSO, or two hours after the last injection of multiple consecutive doses (5.2 mg/kg, i.p., daily for seven days). Either single or multiple dosing with DETC-MeSO reduced the capacity of synaptic membranes to bind glutamate by approximately 50%, the maximum effect obtained in vitro (FIG. 3). Each bar represents the average of results obtained from four animals and the error bars are for one standard deviation."}, "[7]": {"conditions": "MetSOX 250 mg/kg, 5.2 mg/kg i.p. 1-2 hours prior, ± standard error"}}, "note": "Marks after values point to notes of the source that are not given here."}
{"compound": "CCN(CC)C(=O)[S+](C)[O-]", "note": "(stereo not drawn) [DETC-MeSO, S-Methyl-N,N-Diethylthiolcarbamate Sulfoxide]", "values": [{"measurement": "effect on seizures that result from NMDA administration", "setting": "[1]; NMDA 125 mg/kg i.p.", "result": "prevented seizures"}, {"measurement": "number of animals that exhibited the effect/total number of animals in the group", "setting": "[1]; NMDA 125 mg/kg, 5.2 mg/kg i.p. 1-2 hours prior", "result": "(0/6)^a"}, {"measurement": "mean time to seizure", "setting": "[1]; NMDA 125 mg/kg, 5.2 mg/kg i.p. 1-2 hours prior, observation 2 hours", "result": ">120^a min"}, {"measurement": "effect on time free of MetSOX seizures", "setting": "[2]", "result": "more than doubled"}, {"measurement": "number of animals that exhibited the effect/total number of animals in the group", "setting": "[2]; MetSOX 250 mg/kg", "result": "(4/4)"}, {"measurement": "mean time to seizure", "setting": "[2]; [7]", "result": "318 ± 60", "unit": "min"}, {"measurement": "inactivation rate of ALDH2", "setting": "[3]; in vitro", "result": 47, "unit": "M⁻¹ s⁻¹"}, {"measurement": "rate for enzyme (ALDH) inactivation", "setting": "[3]; under physiological conditions", "result": 40, "unit": "M⁻¹ s⁻¹"}, {"measurement": "plasma acetaldehyde", "setting": "[4]", "result": "approximately 900 μM"}, {"measurement": "effect on time free of MetSOX seizures", "setting": "[5]", "result": "more than doubled"}, {"measurement": "mean time to seizure", "setting": "[5]; [7]", "result": "307 ± 60", "unit": "min"}, {"measurement": "number of animals that exhibited the effect/total number of animals in the group", "setting": "[5]; MetSOX 250 mg/kg, observation six hours", "result": "(6/8)^a"}, {"measurement": "irreversible brain glutamate receptor blockage", "setting": "[6]; 30 μmol/kg intravenous, mice", "result": "38.2±1.6", "unit": "%"}, {"measurement": "reduction of capacity of synaptic membranes to bind glutamate", "setting": "[6]; 5.2 mg/kg i.p. daily for seven days, killed two hours after last injection", "result": "approximately 50%"}, {"measurement": "inhibition of glutamate binding", "setting": "[6]; single dose 5.2 mg/kg i.p., killed 24 hours after", "result": "less inhibition"}, {"measurement": "reduction of capacity of synaptic membranes to bind glutamate", "setting": "[6]; single dose 5.2 mg/kg i.p., killed two hours after", "result": "approximately 50%"}]}
